Laboratory results: publication PMC3973950, “Synthesis of 5-arylidine amino-1,3,4-thiadiazol-2-[(N-substituted benzyol)]sulphonamides endowed with potent antioxidants and anticancer activity induces growth inhibition in HEK293, BT474 and NCI-H226 cells” (Medicinal Chemistry Research, 2013)

What was measured:
[1] = In vitro cytotoxicity by MTT assay, HEK 293; format: cell-based, human; settings: human, HEK 293 cells, read-out: % cytotoxicity (100 − % cell survival) of HEK 293 cell line
How it was run: (§1)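 Cells grown in RPMI-1640 with 10 % […] newborn calf serum were seeded at about 10,000 cells per well and left 24 h to form a partial monolayer. Compounds were then added for 72 h at 37 °C, 5 % CO2, followed by MTT for 4 h, formazan solubilized in propanol and absorbance read at 490 nm.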

[2] = DPPH radical scavenging activity; format: biochemical; settings: Conc. ± SD; standard ascorbic acid; read-out: IC50 inhibitory concentration, DPPH radical
Protocol: Compounds of SC series were evaluated for their in vitro free radical scavenging activities by 2,2-diphenyl-1-picrylhydrazyl (DPPH) assay method (Blois, [1958]; Shishoo et al., [1999]; Chhajed et al., [2007]). To determine the free radical scavenging activity, a method based on the reduction of a methanolic solution of the coloured DPPH radical was used. To a set of test tubes containing methanol (3 mL), DPPH reagent (2 mg/mL) (50 μL) was added. The initial absorbance was measured. To these test tubes, methanolic solution of different test solutions (1 mg/mL) were added (10–50 μL). Ascorbic acid (0.5 mg/mL) was also added in the concentration of 10, 20, 30, 40, 50 and 100 μL. After 20 min, absorbance was recorded at 516 nm. The experiment was performed in triplicate. The percentage reduction in absorbance was calculated from the initial and final absorbance of each solution (Dhar and Taploo, [1982]).

[3] = test system: BT474 (breast cancer cell line); experiment: In vitro cytotoxicity by MTT assay, BT474; format: cell-based; settings: Homo sapiens, 72 h; for cytotoxicity at 0.005 µM: BT-474, 0.005 μM; for cytotoxicity at 0.005 µM / cytotoxicity at 0.015 µM / cytotoxicity at 0.045 µM / cytotoxicity at 0.13 µM / cytotoxicity at 0.41 µM / cytotoxicity at 1.23 µM / cytotoxicity at 3.7 µM / cytotoxicity at 11.11 µM / cytotoxicity at 33.33 µM / cytotoxicity at 100 µM: read-out: % cytotoxicity (100 − % cell survival) of BT474 cell line; for cytotoxicity at 0.015 µM: BT-474, 0.015 μM; for cytotoxicity at 0.045 µM: BT-474, 0.045 μM; for cytotoxicity at 0.13 µM: BT-474, 0.13 μM; for cytotoxicity at 0.41 µM: BT-474, 0.41 μM; for cytotoxicity at 1.23 µM: BT-474, 1.23 μM; for cytotoxicity at 3.7 µM: BT-474, 3.7 μM; for cytotoxicity at 11.11 µM: BT-474, 11.11 μM; for cytotoxicity at 33.33 µM: BT-474, 33.33 μM; for cytotoxicity at 100 µM: BT-474, 100 μM; for CC50: BT-474, BT474, concentration at which 50 % of the cells are dead, read-out: CTC50 (cytotoxicity concentration)
How it was run: as §1

[4] = Lipid peroxidation inhibitory activity (egg lecithin liposomes, TBA); format: biochemical; settings: Conc. ± SD; standard ascorbic acid; read-out: IC50 inhibitory concentration, Lipid peroxidation
Protocol: Egg lecithin (3 mg/mL phosphate buffer, pH 7.4) was sonicated in an ultrasonic sonicator for 10 min to ensure proper liposome formation. Test samples or standard, ascorbic acid (100 μL) of different concentrations (10, 20, 30, 40 50 and 100 μg/mL) was added to liposome mixture (1 mL); the control was without test sample. Lipid peroxidation was induced by adding ferric chloride (10 μL, 400 mM) and L-ascorbic acid (10 μL, 200 mM). After incubation for 1 h at 37 °C, the reaction was stopped by adding hydrochloric acid (2 mL, 0.25 N) containing trichloroacetic acid (150 mg/mL), thiobarbituric acid (3.75 mg/mL) and butylated hydroxy anisole (0.50 mg/mL). The reaction mixture was subsequently boiled for 15 min, cooled and centrifuged at 1,000 rpm for 15 min, and the absorbance of the supernatant was measured at 532 nm (Duh and Yen, [1997]). The % inhibition at different concentrations was calculated by the following formula %Inhibition=[1-(Vt/Vc)]×100 where V t = mean absorption of test compound, V c = mean absorption of control.
The IC50 (nM/mL) value was derived from the % inhibition at different concentrations.

[5] = Total antioxidant activity (ABTS radical cation scavenging); format: biochemical; settings: Conc. ± SD; three independent experiments in duplicate; standard trolox; read-out: IC50 inhibitory concentration, ABTS^+ radical
Protocol: The ability of the test sample to scavenge 2,2′-azinobis-(3-ethylbenzothiazoline-6-sulphonic acid) (ABTS^·+) radical cation was compared with 6-hydroxy-2,5,7,8-tetramethylchroman-2-carboxylic acid (trolox) standard (Chang et al., [2007]; Erel, [2004]; Re et al., [1999]). The ABTS^·+ radical cation was pregenerated by mixing ABTS stock solution (7 mM) with potassium persulphate (2.45 mM) (final concentration) and incubating for 12–16 h in the dark at room temperature until the reaction was complete and the absorbance was stable. The absorbance of the ABTS^·+ solution was equilibrated to 0.70 (±0.02) by diluting with water at room temperature, then 1 mL of solution was mixed with 10 μL of the test sample (0.05–10 mg/mL), and the absorbance was measured at 734 nm after 6 min. All experiments were repeated three times. The percentage inhibition of absorbance was calculated and plotted as a function of the concentration of standard and sample to determine the trolox equivalent antioxidant concentration (TEAC). To calculate the TEAC, the gradient of the plot for the sample was divided by the gradient of the plot for trolox. The IC50 inhibitory concentration (nM/mL) values of tested compounds are depicted in Table 1. The ABTS^·+ radical scavenging activity of the samples was expressed as S%=[(Acontrol-Asample)/Acontrol]×100 where A control is the absorbance of the blank control (ABTS^·+ solution without test sample), and A sample is the absorbance of the test sample.

SMILES	cytotoxicity at 72 h, 0.005 µM [1] [%]	cytotoxicity at 72 h, 0.015 µM [1] [%]	cytotoxicity at 72 h, 0.045 µM [1] [%]	cytotoxicity at 72 h, 0.13 µM [1] [%]	cytotoxicity at 72 h, 0.41 µM [1] [%]	cytotoxicity at 72 h, 1.23 µM [1] [%]	cytotoxicity at 72 h, 3.7 µM [1] [%]	cytotoxicity at 72 h, 11.11 µM [1] [%]	cytotoxicity at 72 h, 33.33 µM [1] [%]	cytotoxicity at 72 h, 100 µM [1] [%]	cytotoxicity at 0.005 µM [3] [%]	cytotoxicity at 0.015 µM [3] [%]	cytotoxicity at 0.045 µM [3] [%]	cytotoxicity at 0.13 µM [3] [%]	cytotoxicity at 0.41 µM [3] [%]	cytotoxicity at 1.23 µM [3] [%]	cytotoxicity at 3.7 µM [3] [%]	cytotoxicity at 11.11 µM [3] [%]	cytotoxicity at 33.33 µM [3] [%]	cytotoxicity at 100 µM [3] [%]	also measured
O=C(NS(=O)(=O)c1nnc(N=Cc2ccc(O)cc2)s1)c1ccccc1 [Compound 9e, N-({5-[(4-Hydroxybenzylidene)amino]-1,3,4-thiadiazol-2-yl}sulfonyl)benzamide]	25.3	26.7	26.6	28.3	29.8	30.3	31.4	34.2	37.6	39.6	25.2	26.4	27.3	28.9	29.9	31.9	37.9	41.8	47.5	56.2	IC50 [2]: 107 ± 18.1 µM; melting point: 178 to 180 °C; IC50 [4]: 134 ± 14.7 µM; IC50 [5]: 47.9 ± 9.9 µM
O=C(NS(=O)(=O)c1nnc(N=Cc2ccc(Cl)cc2)s1)c1ccccc1 [Compound 9b, N-({5-[(4-Chlorobenzylidene)amino]-1,3,4-thiadiazol-2-yl}sulfonyl)benzamide]	33.2	34.1	34.6	36.6	37.7	38	38.2	38.6	38.9	40.7	38.8	39.4	41.5	42	46.1	50.1	56.3	60.7	62.3	65	IC50 [2]: 88.2 ± 11.1 µM; melting point: 212 to 214 °C; CC50 [3]: 2.41 µM; IC50 [4]: 133 ± 11.5 µM; IC50 [5]: 93.3 ± 10.7 µM
CN(C)c1ccc(C=Nc2nnc(S(=O)(=O)NC(=O)c3ccccc3)s2)cc1 [Compound 9h, N-[(5-{[4-(Dimethylamino)benzylidene]amino}-1,3,4-thiadiazol-2-yl)sulfonyl]benzamide]	32	32.9	34.5	34.8	35.1	35.7	35.7	36.2	36.9	37.6	29	29.1	30.6	32.9	33.8	34.2	35.2	38.4	41.5	47.7	melting point: 236 to 238 °C
COc1cc(C=Nc2nnc(S(=O)(=O)NC(=O)c3ccccc3)s2)ccc1O [Compound 9g, N-({5-[(4-Hydroxy-3-methoxybenzylidene)amino]-1,3,4-thiadiazol-2-yl}sulfonyl)benzamide]	25.4	27.6	28.5	30.3	31.1	32.1	32.8	33.5	34.1	38.6	27.4	28	28.7	29.2	31.4	32.8	33.2	34.7	36.2	38.1	melting point: 252 to 254 °C
COc1ccccc1C=Nc1nnc(S(=O)(=O)NC(=O)c2ccccc2)s1 [Compound 9c, N-({5-[(2-Methoxybenzylidene)amino]-1,3,4-thiadiazol-2-yl}sulfonyl)benzamide]	36.8	38.2	40.3	42.1	42.9	43.1	44.3	45.9	47.4	52.3	38.1	41.5	42.6	44.4	47	50.4	53.6	54.8	58.8	67.1	IC50 [2]: 41.3 ± 4.23 µM; CC50 [3]: 0.794 µM; IC50 [4]: 102 ± 14.5 µM; IC50 [5]: 196 ± 16.6 µM
